From US11033539B2, “Compounds of formulas (VII), (VIII), (IX), (XI), (XII), (XIII), and (XIV) as muscarinic receptor 4(M4) antagonists for treating neurological diseases” (Neurocrine Biosciences, Inc., priority 2015, dated 2021)

Target: human M4 receptor (Homo sapiens (Human), UniProt P08173)
Assay: Radioligand (tritiated N-methylscopolamine) binding assay, M4
Conditions: Ki against the M4 receptor; membranes from CHO cells expressing human M4; tritiated N-methylscopolamine 1.5 nM; read-out: Ki
Procedure: Binding affinity (Ki) of compounds was measured by inhibition of radioligand binding to membranes from CHO cells expressing human M1, M2, M3, M4 and M5 receptors. Membranes were prepared by nitrogen cavitation and differential centrifugation as previously described (Hoare et al., Mol. Pharmacol. 2003 March; 63(3): 751-65). The radioligand employed was tritiated N-methylscopolamine, used at a concentration of 1.5 nM. A dose-response of twelve concentrations of compound was used, ranging from 10 μM to […]. The assay buffer was 50 mM HEPES, 100 mM NaCl, 5 mM MgCl2, 1 mM ethylenediaminetetraacetic acid, pH-adjusted to pH 7.4. Membranes, radioligand and compound were incubated together for 90 minutes at 37° C., in a total volume of 150 μl in a 96-well plate. Receptor-bound radioligand was then collected by harvesting the assay over glass fiber filters pretreated with polyethylenimine to trap the cell membranes, using rapid vacuum filtration. Harvesting and radioactivity counting was conducted as previously described (see, e.g., Hoare et al., Mol. Pharmacol. 2003 63(3):751-65); Erratum at Mol. Pharmacol. 2005 July; 68(1): 260).

Sequence of human M4 receptor (P08173 whole entry): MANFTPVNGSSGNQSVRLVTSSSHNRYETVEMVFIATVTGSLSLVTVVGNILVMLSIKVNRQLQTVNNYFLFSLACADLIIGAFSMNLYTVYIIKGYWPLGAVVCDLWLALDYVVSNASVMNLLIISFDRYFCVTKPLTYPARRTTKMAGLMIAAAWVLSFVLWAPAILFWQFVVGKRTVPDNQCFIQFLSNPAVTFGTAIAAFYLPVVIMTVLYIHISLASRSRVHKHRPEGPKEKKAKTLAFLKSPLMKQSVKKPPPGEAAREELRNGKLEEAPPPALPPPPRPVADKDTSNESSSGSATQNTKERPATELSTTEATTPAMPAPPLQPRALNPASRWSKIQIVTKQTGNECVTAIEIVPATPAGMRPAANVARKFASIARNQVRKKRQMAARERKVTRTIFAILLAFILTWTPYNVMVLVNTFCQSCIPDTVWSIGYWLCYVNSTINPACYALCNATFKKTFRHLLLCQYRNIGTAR

Structure (SMILES) | Ki
C[C@@H]1CN(c2ccc(C#N)cc2)CCN1C(=O)NCCC1CCN(Cc2ccccc2)CC1 [4-25, (2R)-N-[2-(1-benzylpiperidin-4-yl)ethyl]-4-(4-cyanophenyl)-2-methylpiperazine-1-carboxamide] | 10 to 100 nM
COc1nc(N2CCN(C(=O)NCCC3CCN(Cc4ccccc4)CC3)[C@H](C)C2)ncc1C#N [4-26, (2R)-N-[2-(1-benzylpiperidin-4-yl)ethyl]-4-(5-cyano-4-methoxypyrimidin-2-yl)-2-methylpiperazine-1-carboxamide] | 10 to 100 nM
COc1nc(N2CCN(C(=O)NCCC3CCN(Cc4ccccc4)CC3)[C@H](C)C2)ncc1F [4-27, (2R)-N-[2-(1-benzylpiperidin-4-yl)ethyl]-4-(5-fluoro-4-methoxypyrimidin-2-yl)-2-methylpiperazine-1-carboxamide] | 10 to 100 nM
C[C@@H]1CN(c2ccc(F)cc2)CCN1C(=O)NCCC1CCN(Cc2ccccc2)CC1 [4-30, (2R)-N-[2-(1-benzylpiperidin-4-yl)ethyl]-4-(4-fluorophenyl)-2-methylpiperazine-1-carboxamide] | 10 to 100 nM
C[C@@H]1CN(c2ccc(C#N)cn2)CCN1C(=O)NCCC1CCN(Cc2ccccc2)CC1 [4-31, (2R)-N-[2-(1-benzylpiperidin-4-yl)ethyl]-4-(5-cyanopyridin-2-yl)-2-methylpiperazine-1-carboxamide] | 10 to 100 nM
C[C@@H]1CN(c2ccc(F)cc2F)CCN1C(=O)NCCC1CCN(Cc2ccccc2)CC1 [4-33, (2R)-N-[2-(1-benzylpiperidin-4-yl)ethyl]-4-(2,4-difluorophenyl)-2-methylpiperazine-1-carboxamide] | 10 to 100 nM
C[C@@H]1CN(c2ccc(C(F)(F)F)nc2)CCN1C(=O)NCCC1CCN(Cc2ccccc2)CC1 [4-34, (2R)-N-[2-(1-benzylpiperidin-4-yl)ethyl]-2-methyl-4-[6-(trifluoromethyl)pyridin-3-yl]piperazine-1-carboxamide] | 10 to 100 nM
C[C@@H]1CN(c2ccc(F)nc2)CCN1C(=O)NCCC1CCN(Cc2ccccc2)CC1 [4-35, (2R)-N-[2-(1-benzylpiperidin-4-yl)ethyl]-4-(6-fluoropyridin-3-yl)-2-methylpiperazine-1-carboxamide] | 10 to 100 nM
C[C@@H]1CN(c2cc(F)c(F)cc2F)CCN1C(=O)NCCC1CCN(Cc2ccccc2)CC1 [4-36, (2R)-N-[2-(1-benzylpiperidin-4-yl)ethyl]-2-methyl-4-(2,4,5-trifluorophenyl)piperazine-1-carboxamide] | 10 to 100 nM
C[C@@H]1CN(c2cccc(F)c2F)CCN1C(=O)NCCC1CCN(Cc2ccccc2)CC1 [4-37, (2R)-N-[2-(1-benzylpiperidin-4-yl)ethyl]-4-(2,3-difluorophenyl)-2-methylpiperazine-1-carboxamide] | 10 to 100 nM
C[C@@H]1CN(c2nc(C#N)cc(C#N)n2)CCN1C(=O)NCCC1CCN(Cc2ccccc2)CC1 [4-38, (2R)-N-[2-(1-benzylpiperidin-4-yl)ethyl]-4-(4,6-dicyanopyrimidin-2-yl)-2-methylpiperazine-1-carboxamide] | 10 to 100 nM
COc1cc(C#N)cc(N2CCN(C(=O)NCCC3CCN(Cc4ccccc4)CC3)[C@H](C)C2)c1 [4-39, (2R)-N-[2-(1-benzylpiperidin-4-yl)ethyl]-4-(3-cyano-5-methoxyphenyl)-2-methylpiperazine-1-carboxamide] | 10 to 100 nM
C[C@@H]1CN(c2cnc3ccccc3c2)CCN1C(=O)NCCC1CCN(Cc2ccccc2)CC1 [4-40, (2R)-N-[2-(1-benzylpiperidin-4-yl)ethyl]-2-methyl-4-(quinolin-3-yl)piperazine-1-carboxamide] | 10 to 100 nM
C[C@@H]1CN(c2ncc(F)cn2)CCN1C(=O)NCCC1CCN(Cc2ccccc2)CC1 [4-41, (2R)-N-[2-(1-benzylpiperidin-4-yl)ethyl]-4-(5-fluoropyrimidin-2-yl)-2-methylpiperazine-1-carboxamide] | 10 to 100 nM
C[C@@H]1CN(c2ccc(C#N)cc2F)CCN1C(=O)NCCC1CCN(Cc2ccccc2)CC1 [4-43, (2R)-N-[2-(1-benzylpiperidin-4-yl)ethyl]-4-(4-cyano-2-fluorophenyl)-2-methylpiperazine-1-carboxamide] | 10 to 100 nM
C[C@@H]1CN(c2ccc(C#N)s2)CCN1C(=O)NCCC1CCN(Cc2ccccc2)CC1 [4-44, (2R)-N-[2-(1-benzylpiperidin-4-yl)ethyl]-4-(5-cyanothiophen-2-yl)-2-methylpiperazine-1-carboxamide] | 10 to 100 nM
C[C@@H]1CN(c2cc(F)ccc2F)CCN1C(=O)NCCC1CCN(Cc2ccccc2)CC1 [4-45, (2R)-N-[2-(1-benzylpiperidin-4-yl)ethyl]-4-(2,5-difluorophenyl)-2-methylpiperazine-1-carboxamide] | 10 to 100 nM
C[C@@H]1CN(c2ccc(F)cn2)CCN1C(=O)NCCC1CCN(Cc2ccccc2)CC1 [4-46, (2R)-N-[2-(1-benzylpiperidin-4-yl)ethyl]-4-(5-fluoropyridin-2-yl)-2-methylpiperazine-1-carboxamide] | 10 to 100 nM
C[C@@H]1CN(c2ccccc2)CCN1C(=O)NCCC1CCN(Cc2ccccc2)CC1 [4-47, (2R)-N-[2-(1-benzylpiperidin-4-yl)ethyl]-2-methyl-4-phenylpiperazine-1-carboxamide] | 10 to 100 nM
C[C@@H]1CN(c2ncc(F)cc2F)CCN1C(=O)NCCC1CCN(Cc2ccccc2)CC1 [4-48, (2R)-N-[2-(1-benzylpiperidin-4-yl)ethyl]-4-(3,5-difluoropyridin-2-yl)-2-methylpiperazine-1-carboxamide] | 10 to 100 nM
C[C@@H]1CN(c2ccccc2F)CCN1C(=O)NCCC1CCN(Cc2ccccc2)CC1 [4-49, (2R)-N-[2-(1-benzylpiperidin-4-yl)ethyl]-4-(2-fluorophenyl)-2-methylpiperazine-1-carboxamide] | 100 to 1000 nM
COc1cccc(N2CCN(C(=O)NCCC3CCN(Cc4ccccc4)CC3)[C@H](C)C2)n1 [4-51, (2R)-N-[2-(1-benzylpiperidin-4-yl)ethyl]-4-(6-methoxypyridin-2-yl)-2-methylpiperazine-1-carboxamide] | 100 to 1000 nM
C[C@@H]1CN(c2ncc(F)c(C#N)n2)CCN1C(=O)NCCC1CCN(Cc2ccccc2)CC1 [4-55, (2R)-N-[2-(1-benzylpiperidin-4-yl)ethyl]-4-(4-cyano-5-fluoropyrimidin-2-yl)-2-methylpiperazine-1-carboxamide] | 100 to 1000 nM
COc1ccc(N2CCN(C(=O)NCCC3CCN(Cc4ccccc4)CC3)CC2C)cc1 (stereo not drawn) [4-56, N-[2-(1-benzylpiperidin-4-yl)ethyl]-4-(4-methoxyphenyl)-3-methylpiperazine-1-carboxamide] | 100 to 1000 nM
C[C@@H]1CN(c2cncc(F)c2)CCN1C(=O)NCCC1CCN(Cc2ccccc2)CC1 [4-61, (2R)-N-[2-(1-benzylpiperidin-4-yl)ethyl]-4-(5-fluoropyridin-3-yl)-2-methylpiperazine-1-carboxamide] | 100 to 1000 nM
C[C@@H]1CN(c2ccccn2)CCN1C(=O)NCCC1CCN(Cc2ccccc2)CC1 [4-62, (2R)-N-[2-(1-benzylpiperidin-4-yl)ethyl]-2-methyl-4-(pyridin-2-yl)piperazine-1-carboxamide] | 100 to 1000 nM
Cc1cncc(N2CCN(C(=O)NCCC3CCN(Cc4ccccc4)CC3)[C@H](C)C2)c1 [4-63, (2R)-N-[2-(1-benzylpiperidin-4-yl)ethyl]-2-methyl-4-(5-methylpyridin-3-yl)piperazine-1-carboxamide] | 100 to 1000 nM
